Laboratory results taken from paper PMC3541548 (Bioorganic & medicinal chemistry letters, 2012).
Where two headings read alike, the source gives them in different places.

Columns and labels:
in vitro = conditions: human, microsomes
Human sEH = biological target: T1, Human sEH (Homo sapiens, UniProt P34913); type: biochemical; conditions: for fold lower potency against sEH: compared to 2-naphthalene analog 7-38
T1 sequence (P34913 1-555): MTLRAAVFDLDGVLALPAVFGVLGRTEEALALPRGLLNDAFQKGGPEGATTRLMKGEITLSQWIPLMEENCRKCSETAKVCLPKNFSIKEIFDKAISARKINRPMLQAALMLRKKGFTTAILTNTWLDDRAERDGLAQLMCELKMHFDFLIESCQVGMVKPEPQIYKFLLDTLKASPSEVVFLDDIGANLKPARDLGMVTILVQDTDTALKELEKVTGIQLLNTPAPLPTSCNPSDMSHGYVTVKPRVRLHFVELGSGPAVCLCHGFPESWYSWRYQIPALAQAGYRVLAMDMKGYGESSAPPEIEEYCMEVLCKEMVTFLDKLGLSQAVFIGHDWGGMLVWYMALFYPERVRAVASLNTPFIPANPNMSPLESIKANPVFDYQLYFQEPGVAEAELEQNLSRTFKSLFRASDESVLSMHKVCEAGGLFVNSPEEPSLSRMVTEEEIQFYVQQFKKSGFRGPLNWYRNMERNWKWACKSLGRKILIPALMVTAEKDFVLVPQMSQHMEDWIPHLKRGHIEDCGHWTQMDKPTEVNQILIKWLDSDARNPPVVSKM

[1] = compared to phenyl compound 7-12

With Cc1ccc(S(=O)(=O)N2CCC(C(=O)Nc3ccccc3O)CC2)c(C)c1 [Compound 7-9] the CLint scaled at 1.5 h (in vitro) was 520 mL/min/kg.
Compound Cc1ccc(S(=O)(=O)N2CCC(C(=O)Nc3ccc4cc(C(=O)O)ccc4c3)CC2)c(C)c1 [Compound 7-45] has a CLint scaled at 1.5 h (in vitro) of 35 mL/min/kg.
In the case of Cc1ccc(S(=O)(=O)N2CCC(C(=O)Nc3ccc(Cl)c(C(F)(F)F)c3)CC2)c(C)c1 [Compound 7-41], the “fold lower potency against sEH” value (Human sEH) is reported as 50 fold.
With Cc1ccc(S(=O)(=O)N2CCC(C(=O)Nc3ccc(Br)cc3)CC2)c(C)c1 [Compound 7-40] the “fold lower potency against sEH” value (Human sEH) was 30 fold.
In the case of Cc1ccc(S(=O)(=O)N2CCC(C(=O)Nc3ccc4c(c3)OCO4)CC2)c(C)c1 [Compound 7-23], the CLint scaled at 1.5 h (in vitro) is reported as 28 mL/min/kg, the “in vitro metabolic stability in human liver microsomes (in words)” value is reported as “intermediate metabolic profiles” and the “fold increase in potency (lower IC50)” value (Human sEH; [1]) is reported as 4 fold.
For Cc1ccc(S(=O)(=O)N2CCC(C(=O)Nc3cccc4cnccc34)CC2)c(C)c1 [Compound 7-44], the CLint scaled at 1.5 h (in vitro) was 5.6 mL/min/kg and the “fold lower potency against sEH” value (Human sEH) was 15 fold.
For Cc1ccc(S(=O)(=O)N2CCC(C(=O)NC3CCCC3)CC2)c(C)c1 [Compound 7-3], the CLint scaled at 1.5 h (in vitro) was 90 mL/min/kg.
COC(=O)c1ccc(NC(=O)C2CCN(S(=O)(=O)c3ccc(C)cc3C)CC2)cc1 [Compound 7-11] gave a CLint scaled at 1.5 h (in vitro) of 340 mL/min/kg.
For Cc1ccc(S(=O)(=O)N2CCC(C(=O)NC3CC3)CC2)c(C)c1 [Compound 7-24], the CLint scaled at 1.5 h (in vitro) was 7 mL/min/kg and the “in vitro metabolic stability in human liver microsomes (in words)” value was “intermediate metabolic profiles”.
For Cc1ccc(S(=O)(=O)N2CCC(C(=O)Nc3ccc(F)cc3)CC2)c(C)c1 [Compound 7-39], the “fold lower potency against sEH” value (Human sEH) was 5 fold.
For Cc1ccc(S(=O)(=O)N2CCC(C(=O)NC34CC5CC(CC(C5)C3)C4)CC2)c(C)c1 [Compound 7-6], the CLint scaled at 1.5 h (in vitro) was 90 mL/min/kg.
With Cc1ccc(S(=O)(=O)N2CCC(C(=O)Nc3ccc4ccccc4c3)CC2)c(C)c1 [Compound 7-42] the CLint scaled at 1.5 h (in vitro) was 140 mL/min/kg and the “fold lower potency against sEH” value (Human sEH) was 180 fold.
For Cc1ccc(S(=O)(=O)N2CCC(C(=O)Nc3ccc(C(C)C)cc3)CC2)c(C)c1 [Compound 7-37], the CLint scaled at 1.5 h (in vitro) was 50 mL/min/kg and the “fold increase in potency (lower IC50)” value (Human sEH) was 3 fold.
For Cc1ccc(S(=O)(=O)N2CCC(C(=O)Nc3ccc([N+](=O)[O-])cc3)CC2)c(C)c1 [Compound 7-35], the “fold increase in potency (lower IC50)” value (Human sEH; [1]) was 2 fold.
Compound Cc1ccc(S(=O)(=O)N2CCC(C(=O)Nc3ccc(S(=O)(=O)C(F)(F)F)cc3)CC2)c(C)c1 [Compound 7-38] has a CLint scaled at 1.5 h (in vitro) of 35 mL/min/kg.
For Cc1ccc(S(=O)(=O)N2CCC(C(=O)Nc3ccc(OC(F)(F)F)cc3)CC2)c(C)c1 [Compound 7-12], the “fold drop in potency against the human sEH” value (Human sEH; compared to cycloalkyl lead compound 2) was 15 fold.
With Cc1ccc(S(=O)(=O)N2CCC(C(=O)Nc3ccc(N4CCOCC4)cc3)CC2)c(C)c1 [Compound 7-14] the “fold decrease in potency” value (Human sEH; [1]) was 10 fold.
Cc1ccc(S(=O)(=O)N2CCC(C(=O)Nc3cccc4cccnc34)CC2)c(C)c1 [Compound 7-20] gave a CLint scaled at 1.5 h (in vitro) of 120 mL/min/kg.
With Cc1ccc(S(=O)(=O)N2CCC(C(=O)Nc3cccc(C(F)(F)F)c3)CC2)c(C)c1 [Compound 7-16] the “fold decrease in potency” value (Human sEH; [1]) was 30 fold.
In the case of Cc1ccc(S(=O)(=O)N2CCC(C(=O)Nc3ccc(Cl)c(Cl)c3)CC2)c(C)c1 [Compound 7-19], the “fold decrease in potency” value (Human sEH; [1]) is reported as 2 fold.
